Values of other authors in paper PMC8698672, “Selective Anticancer and Antimicrobial Metallodrugs Based on Gold(III) Dithiocarbamate Complexes” (Biomedicines, 2021).

System: Caco-2/TC7 tumor cells
Settings: reference drugs, Caco-2 tumor cells; ref [27]; cited from earlier work

Q: Which IC50 does the source give for `CC(=O)OC[C@H]1O[C@@H]([S-])[C@H](OC(C)=O)[C@@H](OC(C)=O)[C@@H]1OC(C)=O.CCP(CC)CC.[Au+]` [auranofin, 2,3,4,6-tetra-o-acetyl-1-thio-b-D-glucopyranosato-(S)-triethylphosphine gold(I)] here?
A: 2100 ± 400 nM
